Assay results from patent US20230056205A1, “SUBSTITUTED 4,6-DIHYDROSPIRO[[1,2,3]TRIAZOLO[4,5-B]PYRIDINE-7,3'-INDOLINE]-2',5(3H)-DIONE ANALOGUES” (The Board of Regents of The University of Texas System, priority 2019, published 2023).
Where two headings read alike, the source gives them in different places.

Assays:
DENV-2 replicon = assay: Luciferase reporter replicon-based screening, DENV-2; format: cell-based, DENV-2 (New Guinea C strain, NGC)
Protocol: (§1) Luciferase Reporter Replicon-Based Screening. Huh7 cells containing a luciferase reporter replicon of DENV-1 (strain WestPac), DENV-2 (New Guinea C strain, NGC), DENV-3 (strain D3MY05-34640) and DENV-4 (strain D4MY01-22713) were used in this study. The replicon cells containing the Renilla luciferase and neomycin-resistance genes were generated using a similar strategy as described previously.^55 Briefly, Huh7 DENV-1 to -4 replicon cells were seeded at a density of 10k per well in a 96-well microplate. After incubation at 37° C. with 5% CO2 overnight, the cells were treated with 2-fold serial dilutions of compounds. Experiments were performed in duplicates. After 48 h of incubation, luciferase activities were measured using the EnduRen live-cell substrate (Promega) by following the manufacturer’s instructions. The dose-dependent curve was plotted and EC50 values were calculated using four parameter logistic regression in GraphPad software Prism 8.0.

DENV-1 replicon = assay: Luciferase reporter replicon-based screening, DENV-1; format: cell-based, DENV-1 (strain WestPac); settings: Dengue virus, DENV1, Huh-7, 48 h, read-out: EC50 DENV-1
Protocol: as §1

DENV-4 replicon = assay: Luciferase reporter replicon-based screening, DENV-4; format: cell-based, DENV-4 (strain D4MY01-22713); settings: Dengue virus, DENV4, Huh-7, 48 h, read-out: EC50 DENV-4
Protocol: as §1

DENV-3 replicon = assay: Luciferase reporter replicon-based screening, DENV-3; format: cell-based, DENV-3 (strain D3MY05-34640)
Protocol: as §1

[1] = Cytotoxicity assay (CellTiter-Glo); format: cell-based; settings: human, Huh7 cells stably expressing DENV-2 replicon
Protocol: Cytotoxicity Assay. Huh7 cells or Huh7 replicon cells were seeded in a 96-well plate. After incubation at 37° C. with 5% CO2 overnight, the cells were treated with 2-fold serial dilutions of compounds. Experiments were performed in duplicates. After 48 h of incubation, cell viability was measured by adding the CellTiter-Glo reagent (Promega) to each well. The cell viability in 0.45% DMSO-treatment groups was treated at 100%. The cell viability in compound-treated wells was normalized to that of DMSO-treated wells. CC50 values were calculated using four parameter logistic regression in GraphPad software Prism 8.0.

[2] = Dengue virus, DENV2, Huh-7, 48 h, read-out: EC50 DENV-2, Huh7 cells stably expressing DENV-2 replicon, 48 h
[3] = Dengue virus, DENV3, Huh-7, 48 h, read-out: EC50 DENV-3, Huh7 cells stably expressing DENV-3 replicon, 48 h

Compound	EC50 (DENV-2 replicon; [2]) [nM]	EC50 (DENV-1 replicon) [nM]	EC50 (DENV-4 replicon) [nM]	EC50 (DENV-3 replicon; [3]) [nM]	CC50 at 48 h [1] [nM]	EC50 (DENV-2 replicon; read-out: EC50 DENV-2, Huh7 cells stably expressing DENV-2 replicon, 48 h) [nM]	EC50 (DENV-3 replicon; read-out: EC50 DENV-3, Huh7 cells stably expressing DENV-3 replicon, 48 h) [nM]
C[C@@H](c1ccc(Cl)cc1)n1nnc2c1NC(=O)C[C@]21C(=O)N(CCN2CCCC2)c2ccc(Cl)cc21 [Compound 58, (R)-5'-Chloro-3-((S)-1-(4-chlorophenyl)ethyl)-1'-(2-(pyrrolidin-1-yl)ethyl)-4,6-dihydrospiro[[1,2,3]triazolo[4,5-b]pyridine-7,3'-indoline]-2',5(3H)-dione]	38	> 5000	> 5000	6	> 10000		
C[C@@H](c1ccc(Cl)cc1)n1nnc2c1NC(=O)C[C@]21C(=O)N(CCCCCCCCCCN(C)C)c2ccc(Cl)cc21 [Compound 70, (R)-5'-Chloro-3-((S)-1-(4-chlorophenyl)ethyl)-1'-(10-(dimethylamino)decyl)-4,6-dihydrospiro[[1,2,3]triazolo[4,5-b]pyridine-7,3'indoline]-2',5(3H)-dione]	3500	2700	3500	98	> 10000		
CC#CCN1C(=O)[C@]2(CC(=O)Nc3c2nnn3[C@@H](C)c2ccc(Cl)cc2)c2cc(Cl)ccc21 [Compound 20, (R)-1'-(But-2-yn-1-yl)-5'-chloro-3-((S)-1-(4-chlorophenyl)ethyl)-4,6-dihydrospiro[[1,2,3]triazolo[4,5-b]pyridine-7,3'-indoline]-2',5(3H)-dione]	63	> 5000	> 5000	20	> 10000		
C[C@@H](c1ccc(Cl)cc1)n1nnc2c1NC(=O)C[C@]21C(=O)N(CCC(C)(C)C)c2ccc(Cl)cc21 [Compound 16, (R)-5ʹ-Chloro-3-((S)-1-(4-chlorophenyl)ethyl)-1ʹ-(3,3-dimethylbutyl)-4,6-dihydrospiro[[1,2,3]triazolo[4,5-b]pyridine-7,3ʹ-indoline]-2ʹ,5(3H)-dione]	870	1100	3900	82	> 10000		
C[C@@H](c1ccc(Cl)cc1)n1nnc2c1NC(=O)C[C@]21C(=O)N(CCCBr)c2ccc(Cl)cc21 [Compound 47, (R)-1'-(3-Bromopropyl)-5'-chloro-3-((S)-1-(4-chlorophenyl)ethyl)-4,6-dihydrospiro[[1,2,3]triazolo[4,5-b]pyridine-7,3'-indoline]-2',5(3H)-dione]	250	2400	3200	76	> 10000		
COc1cc(CN2C(=O)[C@]3(CC(=O)Nc4c3nnn4[C@@H](C)c3ccc(Cl)cc3)c3cc(Cl)ccc32)cc(OC)c1 [Compound 30, (R)-5'-Chloro-3-((S)-1-(4-chlorophenyl)ethyl)-1'-(3,5-dimethoxybenzyl)-4,6-dihydrospiro[[1,2,3]triazolo[4,5-b]pyridine-7,3'-indoline]-2',5(3H)-dione]	3100	3400	7400	790	> 10000		
C[C@@H](c1ccc(Cl)cc1)n1nnc2c1NC(=O)C[C@]21C(=O)N(CCN2CCN(C)CC2)c2ccc(Cl)cc21 [Compound 59, (R)-5'-Chloro-3-((S)-1-(4-chlorophenyl)ethyl)-1'-(2-(4-methylpiperazin-1-yl)ethyl)-4,6-dihydrospiro[[1,2,3]triazolo[4,5-b]pyridine-7,3'-indoline]-2',5(3H)-dione]	300	> 5000	> 5000	30	> 10000		
C[C@@H](c1ccc(Cl)cc1)n1nnc2c1NC(=O)C[C@]21C(=O)N(CCN2CCCCC2)c2ccc(Cl)cc21 [Compound 56, (R)-5'-Chloro-3-((S)-1-(4-chlorophenyl)ethyl)-1'-(2-(piperidin-1-yl)ethyl)-4,6-dihydrospiro[[1,2,3]triazolo[4,5-b]pyridine-7,3'-indoline]-2',5(3H)-dione]	74	> 5000	> 5000	5	> 10000		
C[C@@H](c1ccc(Cl)cc1)n1nnc2c1NC(=O)C[C@]21C(=O)N(Cc2ccccn2)c2ccc(Cl)cc21 [Compound 33, (R)-5'-chloro-3-((S)-1-(4-chlorophenyl)ethyl)-1'-(pyridin-2-ylmethyl)-4,6-dihydrospiro[[1,2,3]triazolo[4,5-b]pyridine-7,3'-indoline]-2',5(3H)-dione]	20	> 5000	> 5000	3	> 10000		
C[C@@H](c1ccc(Cl)cc1)n1nnc2c1NC(=O)C[C@]21C(=O)N(CCF)c2ccc(Cl)cc21 [Compound 46, (R)-5'-Chloro-3-((S)-1-(4-chlorophenyl)ethyl)-1'-(2-fluoroethyl)-4,6-dihydrospiro[[1,2,3]triazolo[4,5-b]pyridine-7,3'-indoline]-2',5(3H)-dione]	37 to 290	> 5000	> 5000	9 to 76	> 10000	38	9
C[C@@H](c1ccc(Cl)cc1)n1nnc2c1NC(=O)C[C@]21C(=O)N(CCCCCCN(C)C)c2ccc(Cl)cc21 [Compound 68, (R)-5'-Chloro-3-((S)-1-(4-chlorophenyl)ethyl)-1'-(6-(dimethylamino)hexyl)-4,6-dihydrospiro[[1,2,3]triazolo[4,5-b]pyridine-7,3'indoline]-2',5(3H)-dione]	900	1500	> 5000	66	> 10000		
C[C@@H](c1ccc(Cl)cc1)n1nnc2c1NC(=O)C[C@]21C(=O)N(C)c2ccc(Cl)cc21 [Compound 7, (R)-5'-Chloro-3-((S)-1-(4-chlorophenyl)ethyl)-1'-methyl-4,6-dihydrospiro[[1,2,3]triazolo[4,5-b]pyridine-7,3'-indoline]-2',5(3H)-dione]	19	> 5000	> 5000	4	> 10000		
CCCCCCN1C(=O)[C@]2(CC(=O)Nc3c2nnn3[C@@H](C)c2ccc(Cl)cc2)c2cc(Cl)ccc21 [Compound 11, (R)-5'-Chloro-3-((S)-1-(4-chlorophenyl)ethyl)-1'-hexyl-4,6-dihydrospiro[[1,2,3]triazolo[4,5-b]pyridine-7,3'-indoline]-2',5(3H)-dione]	810	830	> 5000	140	> 10000		
C[C@@H](c1ccc(Cl)cc1)n1nnc2c1N(C)C(=O)C(C)(C)[C@]21C(=O)N(C)c2ccc(Cl)cc21 [Compound 23, (S)-5'-Chloro-3-((S)-1-(4-chlorophenyl)ethyl)-1ʹ,4,6,6-tetramethyl-4,6-dihydrospiro[[1,2,3]triazolo[4,5-b]pyridine-7,3ʹ-indoline]-2ʹ,5(3H)-dione]	> 5000	> 5000	> 5000	> 5000	> 10000		
C[C@@H](c1ccc(Cl)cc1)n1nnc2c1NC(=O)C[C@]21C(=O)N(Cc2ccc(Cl)cc2)c2ccc(Cl)cc21 [Compound 27, (R)-5'-Chloro-1'-(4-chlorobenzyl)-3-((S)-1-(4-chlorophenyl)ethyl)-4,6-dihydrospiro[[1,2,3]triazolo[4,5-b]pyridine-7,3'-indoline]-2',5(3H)-dione]	3300	2200	6500	200	> 10000		
CC(C)N1C(=O)[C@]2(CC(=O)Nc3c2nnn3[C@@H](C)c2ccc(Cl)cc2)c2cc(Cl)ccc21 [Compound 13, (R)-5'-Chloro-3-((S)-1-(4-chlorophenyl)ethyl)-1'-isopropyl-4,6-dihydrospiro[[1,2,3]triazolo[4,5-b]pyridine-7,3ʹ-indoline]-2',5(3H)-dione]	23	5700	> 5000	9	> 10000		
C[C@@H](c1ccc(Cl)cc1)n1nnc2c1NC(=O)C[C@]21C(=O)N(Cc2ccncc2)c2ccc(Cl)cc21 [Compound 35, (R)-5'-Chloro-3-((S)-1-(4-chlorophenyl)ethyl)-1'-(pyridin-4-ylmethyl)-4,6-dihydrospiro[[1,2,3]triazolo[4,5-b]pyridine-7,3'-indoline]-2',5(3H)-dione]	72	> 5000	> 5000	25	> 10000		
